Laboratory results published in patent publication US20260207560A1, “PLURALITY OF GRANULES” (priority 2022, published 2026).
Several values for one entry are separate records, joined by “and”; a condition that tells them apart may be missing. Equal values may be shown once.

Assay: Stability of active ingredient in volatile solvents, 20-28 hours at ambient (UPLC assay and impurities)
Settings: for Assay (as % of nominal): vial replicates
Procedure: Note the incubation for the stability studies were all performed in a similar way: • All were put into 4 mL amber glass vials. • The Initial samples were not analysed as soon as sampled but instead were frozen at −20° C. until the point of analysing the incubated samples (e.g after 28 days at 25, 40 or 50° C.) to avoid degradation of the active ingredient.
Chemical stability was determined by assay (results in Table 8) and quantification of potential active ingredient related substances (shown in
Table 9). […] The objective was to establish whether any active ingredient-related substances might be increasing as a result of the ambient hold.

[1] = 0.1 M HCl, 24 hour, listed as active ingredient
[2] = 0.1 M HCl, Initial, listed as active ingredient
[3] = 5% SLS aq., 24 hour, listed as active ingredient
[4] = 5% SLS aq., Initial, listed as active ingredient

Structure (SMILES): CCS(=O)(=O)Nc1ccc2c(c1)nc(C(C)(C)C)n2CC1CCC(F)(F)CC1 [Compound I, N-(2-(tert-butyl)-1-((4,4-difluorocyclohexyl)methyl)-1H-benzimidazol-5-yl)ethanesulfonamide]
- Impurity peak area, RRT 0.38 (0.1 M HCl, 24 hour): 0.07 % of Total
- Impurity peak area, RRT 0.61 (0.1 M HCl, 24 hour): <0.05 % of Total
- Impurity peak area, RRT 0.83 (0.1 M HCl, 24 hour): 0.11 % of Total
- Impurity peak area, RRT 0.85 (0.1 M HCl, 24 hour): 0.07 % of Total
- Impurity peak area, RRT 0.92 (0.1 M HCl, 24 hour): 0.09 % of Total
- Impurity peak area, RRT 0.62 [1]: <0.05 % of Total and 0.05 % of Total
- Impurity peak area, RRT 0.84* [1]: 0.27 % of Total and 0.34 % of Total
- Impurity peak area, RRT 0.86^$ (PDA spectra unrelated to the active ingredient) [1]: <0.05 % of Total and 0.05 % of Total
- Impurity peak area, RRT 0.98* (first row) [1]: 0.24 % of Total and 0.22 % of Total
- Impurity peak area, RRT 0.98* (second row) [1]: 0.12 % of Total and 0.13 % of Total
- Impurity peak area, RRT 1.04* [1]: 0.05 % of Total and <0.05 % of Total
- Impurity peak area, RRT 1.23* [1]: 0.16 % of Total and 0.15 % of Total
- Impurity peak area, RRT 1.24* [1]: <0.05 % of Total and 0.05 % of Total
- Impurity peak area, RRT 1.35* [1]: 0.07 % of Total and 0.06 % of Total
- Impurity peak area, RRT 1.36* [1]: <0.05 % of Total and 0.05 % of Total
- Impurity peak area, Total [1]: 1.00 % of Total and 1.44 % of Total
- Impurity peak area, Total excluding artifact [1]: 1.00 % of Total and 1.16 % of Total
- Assay (as % of nominal), Mean (0.1M HCl, 24 hours ambient): 106.7 % of nominal
- Assay (as % of nominal) (0.1M HCl, 24 hours ambient, listed as active ingredient): 107.7 % of nominal and 105.4 % of nominal
- Assay (as % of nominal), Mean (0.1 M HCl, Initial): 114.4 % of nominal
- Impurity peak area, RRT 0.41 (0.1 M HCl, Initial): <0.05 % of Total
- Impurity peak area, RRT 0.98* (first row) (0.1 M HCl, Initial): 0.22 % of Total
- Impurity peak area, RRT 0.98* (second row) (0.1 M HCl, Initial): 0.12 % of Total
- Impurity peak area, RRT 1.04* (0.1 M HCl, Initial): <0.05 % of Total
- Impurity peak area, RRT 1.24* (0.1 M HCl, Initial): <0.05 % of Total
- Impurity peak area, RRT 0.38 [2]: 0.10 % of Total and 0.08 % of Total
- Impurity peak area, RRT 0.61 [2]: 0.13 % of Total and 0.08 % of Total
- Impurity peak area, RRT 0.62 [2]: 0.15 % of Total and 0.09 % of Total
- Impurity peak area, RRT 0.84* [2]: 0.31 % of Total and 0.26 % of Total
- Impurity peak area, RRT 0.85 [2]: <0.05 % of Total and 0.08 % of Total
- Impurity peak area, RRT 0.92 [2]: 0.18 % of Total and 0.14 % of Total
- Impurity peak area, RRT 1.23* [2]: 0.22 % of Total and 0.23 % of Total
- Impurity peak area, RRT 1.35* [2]: 0.05 % of Total and 0.06 % of Total
- Impurity peak area, RRT 1.36* [2]: 0.05 % of Total and 0.06 % of Total
- Impurity peak area, Total [2]: 2.00 % of Total and 1.47 % of Total
- Impurity peak area, Total excluding artifact [2]: 1.15 % of Total and 1.17 % of Total
- Assay (as % of nominal) (0.1M HCl, Initial, listed as active ingredient): 100.6 % of nominal and 127.9 % of nominal
- Impurity peak area, RRT 0.41 (5% SLS aq., 24 hour): <0.05 % of Total
- Impurity peak area, RRT 0.62 (5% SLS aq., 24 hour): 0.08 % of Total
- Impurity peak area, RRT 0.85 (5% SLS aq., 24 hour): NBD
- Impurity peak area, RRT 0.92 (5% SLS aq., 24 hour): 0.05 % of Total
- Impurity peak area, RRT 0.98* (first row) (5% SLS aq., 24 hour): 0.24 % of Total
- Impurity peak area, RRT 1.04* (5% SLS aq., 24 hour): 0.06 % of Total
- Impurity peak area, RRT 1.24* (5% SLS aq., 24 hour): <0.05 % of Total
- Impurity peak area, RRT 1.36* (5% SLS aq., 24 hour): <0.05 % of Total
- Impurity peak area, RRT 0.38 [3]: 0.10 % of Total and 0.07 % of Total
- Impurity peak area, RRT 0.61 [3]: 0.07 % of Total and 0.06 % of Total
- Impurity peak area, RRT 0.83 [3]: 0.30 % of Total and 0.16 % of Total
- Impurity peak area, RRT 0.84* [3]: 0.32 % of Total and 0.30 % of Total
- Impurity peak area, RRT 0.86^$ (PDA spectra unrelated to the active ingredient) [3]: 0.05 % of Total and 0.07 % of Total
- Impurity peak area, RRT 0.98* (second row) [3]: 0.13 % of Total and 0.12 % of Total
- Impurity peak area, RRT 1.23* [3]: 0.06 % of Total and 0.07 % of Total
- Impurity peak area, RRT 1.35* [3]: 0.07 % of Total and 0.06 % of Total
- Impurity peak area, Total [3]: 1.53 % of Total and 1.34 % of Total
- Impurity peak area, Total excluding artifact [3]: 0.93 % of Total and 0.90 % of Total
- Assay (as % of nominal), Mean (5% SLS aq., 24 hours ambient): 100.8 % of nominal
- Assay (as % of nominal) (5% SLS aq., 24 hours ambient, listed as active ingredient): 99.4 % of nominal and 102.3 % of nominal
- Assay (as % of nominal), Mean (5% SLS aq., Initial): 103.3 % of nominal
- Impurity peak area, RRT 0.84* (5% SLS aq., Initial): 0.32 % of Total
- Impurity peak area, RRT 0.86^$ (PDA spectra unrelated to the active ingredient) (5% SLS aq., Initial): <0.05 % of Total
- Impurity peak area, RRT 0.98* (first row) (5% SLS aq., Initial): 0.24 % of Total
- Impurity peak area, RRT 0.98* (second row) (5% SLS aq., Initial): 0.12 % of Total
- Impurity peak area, RRT 1.24* (5% SLS aq., Initial): <0.05 % of Total
- Impurity peak area, RRT 1.36* (5% SLS aq., Initial): 0.05 % of Total
- Impurity peak area, RRT 0.92 [4]: 0.05 % of Total and <0.05 % of Total
- Impurity peak area, RRT 1.04* [4]: 0.05 % of Total and <0.05 % of Total
- Impurity peak area, RRT 1.23* [4]: 0.06 % of Total and 0.07 % of Total
- Impurity peak area, RRT 1.35* [4]: 0.07 % of Total and 0.08 % of Total
- Impurity peak area, Total [4]: 0.96 % of Total and 0.88 % of Total
